# Reference: US20180353461A1, “USE OF CANNABINOIDS AS CERAMIDE-GENERATING ANTICANCER AGENTS IN TUMORS OF THE HEMATOPOIETIC AND LYMPHOID TISSUES” (priority 2014, published 2018)
# Legend:
# Type in all cases: cell-based, human
# HL60 cells [1] = assay: SPT expression, ceramide staining and SPT inhibition in HL60 cells
# Description: Extracted proteins (15-25 ug/well) were separated by sodium dodecyl sulfate-polyacrylamide gel electrophoresis (SDS/PAGE) in pre-cast polyacrylamide gels AnykD (Bio-Rad Laboratories, Hercules, Calif., USA) under reducing and denaturing conditions. Electrophoretic run was performed at a constant current of 15 mA per gel in a Mini-Protean® Tetra Cell (Bio-Rad Laboratories) and were electrophoretically transferred onto PVDF membranes using Trans-Blot® Turbo™ System (Bio-Rad Laboratories). Blocking was performed with 2% bovine serum albumin [(BSA), Santa Cruz Biotechnology] in Tween-Tris buffer saline (TTBS). Membranes were incubated overnight at 4° C. with corresponding primary antibody in TTBS.
# Cells were grown on glass cover slips (Menzel-Glaser, Thermo Fisher Scientific) in the presence or absence of WIN 55,212-2. The cover slips were then washed twice in phosphate-buffered saline (PBS), and the cells were fixed in cold 4% paraformaldehyde for 10 min, treated with sodium borohydride and, permeabilized in 0.02% Triton X-100 in PBS with 10% normal donkey serum for blocking. Cell nuclei were stained with diamidino-2-phenylindole [(DAPI), Pierce, Thermo Fisher Scientific)]. Then, cells were incubated with the anti-CB1 or anti-CB2 receptor antibodies or anti-ceramide in blocking buffer overnight at 4° C. in a humid chamber (Simport, Beloeil, QC, Canada). After washing with PBS, samples were further incubated for 90 min with Alexa 647- or Alexa 488-conjugated donkey secondary antibody.
# After final washing in PBS, the cover slips were dried and mounted on slides using Fluoromount Aqueous Mounting Medium (Sigma-Aldrich). Changes in the protein expression were visualized by fluorescence microscopy using a specific excitation for each antibody. Digital images were acquired with CellSens Dimension Software (Olympus) and manipulated with Photoshop CS2 Software (Adobe Systems Inc). There was no labeling when the primary antibody was omitted (data not shown).
# Additionally, de novo synthesis of ceramides also contribute to the apoptotic process triggered by cannabinoids in AML. We examined whether ceramides participate in the cannabinoid-induced apoptosis in leukemic cells. To this end, we analyzed the expression of serine palmitoyltransferase (SPT), the enzyme that catalyses the rate-limiting step of ceramide synthesis de novo. […] To ensure that this up-regulation of SPT entails an increased of ceramide synthesis, we examined the expression of ceramide by immunohistochemistry. […] Furthermore, to strengthen the engagement of the ceramide in cannabinoid-induced apoptosis, we analyzed the cannabinoid-induce apoptosis after inhibition of ceramide synthesis with Myoricin, a selective SPT inhibitor.
# U266 cells = assay: Western blot of ER-stress regulator proteins in U266 cells; details: U266, WIN-55 50 uM
# Description: Samples (15-25 ug/lane) were subjected to SDS/PAGE in pre-cast polyacrylamide gels AnykD (Bio-Rad Laboratories, Hercules, CA, USA) under reducing and denaturing conditions. Electrophoretic run was performed at a constant current of 15 mA per gel in a Mini-Protean® Tetra Cell (Bio-Rad Laboratories). Once proteins were separated by electrophoresis, were transferred onto PVDF membranes using Trans-Blot® Turbo™ System (Bio-Rad Laboratories). Electrotransference was conducted at constant amperage of 1.2 mA and at up to 25 V of voltage. The blotted membranes were then blocked with 2% bovine serum albumin [(BSA), Santa Cruz Biotechnology] in Tween-Tris buffer saline (TTBS) for 30 min with gentle agitation, and incubated overnight at 4° C. with corresponding primary antibody in TTBS. After twice washing with TTBS, membranes were incubated for 1-2 h at room temperature with suitable conjugated-HRP secondary antibody, and subjected to chemiluminescence detection using Western Blotting Luminol Reagent (Santa Cruz Biotechnology). Loading controls were carried out with an anti-beta-actin and anti-beta-tubulin antibodies (Sigma-Aldrich). […]
# Cannabinoids attenuate the response to ER-stress in myelomatous cells. […] To test the effect of cannabinoids on ER-stress we analyzed the expression profile of ER-stress related proteins in myelomatous cells.
# HL60 cells [2] = assay: Mitochondrial membrane potential in HL60 cells (TMRE, flow cytometry)
# Description: Mitochondrial membrane potential and superoxide detection Cells (10e6 cells per assay) were treated with a concentration of WIN-55 for 15, 30, 45 and 60 min at 37° C. Fluorochromes 10 μM TMRM [(tetramethylrhodamine-ethyl-ester-perchlorate), Santa Cruz Biotechnology Inc.] to detect membrane potential, or 5 μM MitoSOX [Molecular Probes (Invitrogen)] to detect mitochondrial superoxide, were added for the last 15 min of treatment. CCCP (uncoupler of oxidative phosphorylation) or H2O2 (oxidant agent) was used as a positive control of the techniques respectively (Labbe et al., 2008). The fluorescence detection of TMRM was measured for flow citometry. Fluorescent intensity was quantified and analyzed using Infinicyt™ Software (Cytognos, Salamanca, Spain).
# To delve into the processes that participate in cannabinoid-induced apoptosis, we evaluated the potential of mitochondrial membrane potential in HL60 cells after treatment with WIN-55, at indicated times, using TMRE assay by flow citometry. We observed that cannabinoids induced a drop of Δψm in HL60 cells (FIG. 20a). The loss of potential started as early as 15 min after exposure to the cannabinoid, and continued decreasing over time. Also the ROS increase by MitoSOX assay was observed, specially in HL60 cells after exposure to WIN-55 (FIG. 20b).
smiles,measurement,setting,value
"CS(=O)(=O)O.Cc1c(C(=O)c2cccc3ccccc23)c2cccc3c2n1[C@H](CN1CCOCC1)CO3 [WIN-55, (R)-(+)-[2,3-dihydro-5-methyl-3-(4-morpholinylmethyl)-pyrrolo-[1,2,3]-1,4-benzoxazin-6-yl]-1-naphthalenylmethanone mesylate]",SPT expression level in leukemic cells,HL60 cells [1]; HL60,enhanced
same,"SPT, 2 h after exposure",HL60 cells [1]; HL60,moderate increase
same,"ceramide by immunohistochemistry, compared to untreated cells","HL60 cells [1]; HL60, 50 uM, 18 hours",remarkable increase
same,"response to ER-stress: expression of CHOP, ATF-4, p-IRE1",U266 cells,attenuates the response to ER-stress
same,time after exposure at which the loss of potential started,HL60 cells [2]; HL60,15 min
same,mitochondrial membrane potential (Δψm),"HL60 cells [2]; HL60, TMRE, flow cytometry",drop of Δψm
